Assay results: patent US8765783B2, “Pharmaceutical composition for treatment of disease due to vascular constriction or vasodilation” (Ono Pharmaceuticals Co., Ltd., priority 2002, dated 2014)
Entries after “also recorded” stand apart in the source; their conditions may differ.

How the values were obtained:
[1] = tested on: removed rabbit coronary artery; assay: Vasoconstrictor action of removed rabbit coronary artery; settings: removed rabbit coronary artery ring
Method: The heart was removed from Male rabbit (NZ White, a bout 2 kg) under anesthesia and immersed into cooled Krebs-Henseleit solution. After that, coronary artery was cut out, heart muscle and fat tissue connected around the heart were removed and ringed samples were made. Samples hung in micro tissue organ bath (MTOB-1: Preimetech Corp.) filled with Krebs-Henseleit solution (37° C.) or magnus tube, they were loaded with about 0.2 g-0.5 g resting tension stabilized for about 60 minutes, and then constrictive movement was recorded on a recorder (linearcoda WR3320: Graphtec Corp.) through strain compression amplifier (AP-601G, Nihon Kohden).

[2] = tested on: rat removed basilar artery; assay: Vasoconstrictor action of rat removed basilar artery; settings: 3 μM (FIG. 3, FIG. 4)
Method: Basilar arteries were removed from male rat (CD(SD)IGS, male, Charles River Japan, Inc., 8 weeks old-10 weeks old, 350-450 g) and quickly immersed in cooled Krebs-Henseleit solution. Removed basilar arteries were divided by about 3 mm width with ophthalmic scissors and made as ringed samples. Samples hung in micro tissue organ bath (MTOB-1: Preimetech Corp.) filled with Krebs-Henseleit solution (37° C.). They were loaded with about 0.2 g resting tension stabilized for about 60 minutes, and then constrictive movement was recorded on a recorder (linearcoda WR3320: Graphtec Corp.) through strain compression amplifier (AP-601G, Nihon Kohden) from micro tissue organ bath.

SD rat = assay: Increase of rat blood pressure by S1P; assay type: in vivo; settings: anesthetized male SD rat, intraperitoneally injected
Method: Male SD Rat (8 weeks old-10 weeks old) was anesthetized by injection of pentobarbital sodium (50 mg/mL/kg), after midline incision in the cervical region, trachea was exposed by exfoliation of tracheal muscle layer and cannula made of polyethylene was inserted into trachea. Next, catheter made of polyethylene was inserted into the common carotid artery and the common jugular vein. Catheter inserted into the common carotid artery was connected to the piezotransducer and the blood pressure was recorded on the recorder through strain compression amplifier. After the above mentioned operation was finished, in the case of the spinal chord was broken, the spinal chord was broken by insertion of stainless pole into the spinal chord cavity. After the spinal chord was broken, tracheal cannula was immediately connected into the artificial breathing device for small animals and artificial ventilation was performed under the conditions of a ventilatory volume 6 mL/kg and velocity 60 times/min. After then, S1P was administered and we confirmed blood pressure was increased. […] As a result, the compound (3) inhibited the increase of blood pressure by S1P.

removed rat heart = assay: Removed rat heart (Langendorff heart); settings: Langendorff heart mode
Excerpt: Rat (CD(SD)IGS, male, Charles River Japan Inc., 8 weeks old-10 weeks old, 300-450 g) was anesthetized by diethylether, opened the abdominal cavity, injected intravenously with heparin and then, exsanguinated to death. The heart was quickly removed by opening the chest cavity and the removed heart was immersed into cooled Krebs-Henseleit solution. The tissues were trimmed away under the cooling, aortic arches were inserted into the heart functional measuring equipment and fixed with sutures without leaking out. The rat heart function was measured using the heart functional measuring equipment (model IPH-W2, Labo-support). The equipment was used in the Langendorff Heart mode (non-working heart mode) and load was 68-70 mmHg. […] Catheter filled with physiological saline was inserted into the left ventricle, the catheter was connected to the piezotransducer (DX-100, Nihon Kohden) and the left ventricle pressure (LVP) was measured through strain compression amplifier (AP-601G, Nihon Kohden). Heart rate was calculated using LVP data with the heart rate measuring equipment (AT-601G, Nihon Kohden) and dLVP/dt was calculated with differential processor (EQ-641G, Nihon Kohden). Probes of electromagnetic flowmeter (model FF-020T, inside diameter 2 mm, Nihon Kohden) were set on the way to the passage of nutrient solution and the flow rate of nutrient solution (corresponding the blood flow rate of coronary artery) was measured using electromagnetic flowmeter (MFV-3100, Nihon Kohden). Administration of S1P and the compounds was performed by injection of dilution with nutrient solution into the passage of nutrient solution using infusion pump. The injection rate of drug solution was set as the flow rate of nutrient solution before starting of administration. […] Using the above mentioned model, effect of EDG-5 antagonist on heart function was examined. […] EDG-5 antagonist, the compound (1), the compound (2) and the compound (3) increased the flow rate of nutrient solution. In addition, they increased contractive force of heart muscle at the same time. […] It was considered that S1P had no direct chronotropic action and inotropic action on pacemaker and heart muscle and S1P had lowering effect on heart function by contracting the coronary blood vessels and ischemia.

SHR rat = assay: Blood pressure of SHR rat; assay type: in vivo; settings: 1 mg/kg, 3 mg/kg and 10 mg/kg, i.v.; SHR rat under the awakening
Excerpt: Rat (SHR/Crj, male, Charles River Japan Inc., 12 weeks old-13 weeks old) was anesthetized by ether, and then rat was fixed in the dorsal position on the laboratory table. Cannula filled with physiologic saline containing heparin was inserted into the femoral artery and cannula filled with physiologic saline was inserted into the femoral vein, respectively. After finish of the operation, rat was fixed in the ballmancage and left at rest until the awakening. The artery cannula was connected to the piezotransducer (DX-100, Nihon Kohden) and the blood pressure was measured through strain compression amplifier(AP-601G, Nihon Kohden). After about 30 minutes from confirming awakening of rat, the blood pressure was measured for additional 30 minutes and then, the compound (3) (1 mg/kg, 3 mg/kg, and 10 mg/kg, i.v.) or vehicle (10% DMSO/plasma) was administered intravenously. After administration, blood pressure was measured for more than 30 minutes. […] In contrast, the compound (3) had little effect on the heart rate.

## Cc1nn(C)c2nc(NNC(=O)Nc3cc(Cl)nc(Cl)c3)cc(C(C)C)c12 [compound (3), N-(2,6-dichloro-4-piridinyl)-2-(4-isopropyl-1,3-dimethyl-1H-pyrazolo[3,4-b]pyridin-6-yl)hydrazinecarboxamide]
[1]
  inhibitory activity on constriction of rabbit coronary artery by S1P: inhibitory activity
[2]
  inhibitory effect on vasoconstrictor action of rat removed basilar artery by S1P: inhibitory effect; also recorded: suppression
SD rat
  inhibition of the increase of blood pressure by S1P: inhibited
Removed rat heart
  flow rate of nutrient solution (corresponding the blood flow rate of coronary artery): increased
Removed rat heart; EDG-5 antagonist
  contractive force of heart muscle: increased
SHR rat
  antihypertensive effect on SHR rat blood pressure: antihypertensive effect
